Reference: ChEMBL document CHEMBL1123868, “Synthesis of a series of compounds related to betaxolol, a new beta 1-adrenoceptor antagonist with a pharmacological and pharmacokinetic profile optimized for the treatment of chronic cardiovascular diseases” (J Med Chem, 1987)
Active and inactive are the calls of the source. The calls are words filed in the database; no cut-off is given here.

What was measured:
Rattus norvegicus [1] = organism: Rattus norvegicus; experiment: Antihypertensive activity expressed as percentage of base-line systolic blood pressure of base-line values in spontaneously hypertensive rats (SHR) was reported after 24 hr; type: functional, Artery; further: test concentration or dose not given here
Rattus norvegicus [2] = organism: Rattus norvegicus; experiment: Antihypertensive activity expressed as percentage of base-line systolic blood pressure of base-line values in spontaneously hypertensive rats (SHR) was reported after 2 hr; type: functional, Artery; further: test concentration or dose not given here
Rattus norvegicus [3] = organism: Rattus norvegicus; experiment: Antihypertensive activity expressed as percentage of base-line systolic blood pressure of base-line values in spontaneously hypertensive rats (SHR) was reported after 4 hr; type: functional, Artery; further: test concentration or dose not given here
[4] = target: Beta-1 adrenergic receptor (Rattus norvegicus) (UniProt P18090); experiment: Antagonist activity was determined against beta-1 adrenergic receptor in spontaneously beating rat atria; type: functional
Chain of Beta-1 adrenergic receptor (Rattus norvegicus) (P18090 whole entry, looked up): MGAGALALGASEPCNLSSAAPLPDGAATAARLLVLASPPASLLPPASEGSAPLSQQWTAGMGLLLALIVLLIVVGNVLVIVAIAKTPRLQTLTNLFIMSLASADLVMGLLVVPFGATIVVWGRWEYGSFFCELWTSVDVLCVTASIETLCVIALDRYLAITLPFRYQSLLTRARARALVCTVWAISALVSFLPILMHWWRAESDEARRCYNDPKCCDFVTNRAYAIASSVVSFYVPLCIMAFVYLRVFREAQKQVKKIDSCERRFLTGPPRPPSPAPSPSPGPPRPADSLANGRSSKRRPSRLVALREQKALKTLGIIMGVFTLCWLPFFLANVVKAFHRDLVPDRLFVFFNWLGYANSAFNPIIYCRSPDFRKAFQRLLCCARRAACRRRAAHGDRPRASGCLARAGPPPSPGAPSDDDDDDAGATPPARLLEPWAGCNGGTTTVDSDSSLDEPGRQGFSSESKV

[5] = target: Beta-1 adrenergic receptor (Rattus norvegicus) (UniProt P18090); conditions: read-out: pA2 (converted)

Row | NA [4] | Kb [5] [µM] | SMILES | Baseline systolic BP (Rattus norvegicus [1]) [%] | Baseline systolic BP (Rattus norvegicus [2]) [%] | Baseline systolic BP (Rattus norvegicus [3]) [%]
1 | – | – | CC(C)NC[C@H](O)COc1ccc(CCOCC2CC2)cc1 [LEVOBETAXOLOL] | -13 | -10 | -12
2 | – | – | CC(C)NCC(O)COc1ccc(CCS(=O)(=O)CC2CCC2)cc1.Cl (stereo not given) | 1 | -4 | -13
3 | – | – | CC(CCc1ccccc1)NCC(O)COc1ccc(CCOCC2CCC2)cc1 (stereo not given) | 2 | -1 | 1
4 | – | – | CC(C)NCC(O)COc1ccc(CCOCC2CC2)cc1.Cl (stereo not given) [BETAXOLOL HYDROCHLORIDE] | -6 | -22 | -19
5 | – | – | Cl.OC(CNC1CC1)COc1ccc(CCOCC2CCC2)cc1 (stereo not given) | 0 | 0 | -5
6 | – | – | CC(CCc1ccc(F)cc1)NCC(O)COc1ccc(CCOCC2CCC2)cc1 (stereo not given) | -2 | -4 | -10
7 | – | – | CC(C)NCC(O)COc1ccc(C[S+]([O-])CC2CC2)cc1 (stereo not given) | -2 | -4 | -8
8 | – | – | CC(C)NCC(O)COc1ccc(CCOCC2CCCCC2)cc1.Cl (stereo not given) | -7 | -14 | -18
9 | – | – | CC(C)NCC(O)COc1ccc(CCSCC2CCC2)cc1 (stereo not given) | -3 | -2 | -6
10 | – | – | CC(C)NCC(O)COc1ccc(CCOCC2CCCC2)cc1 (stereo not given) | -8 | -21 | -16
11 | – | – | CC(C)NCC(O)COc1ccc(CCOC2CCCCC2)cc1 (stereo not given) | -12 | 4 | -2
12 | – | – | CC(C)NCC(O)COc1ccc(COCC2CCC2)cc1.Cl (stereo not given) | -1 | -9 | -6
13 | – | – | CC(=O)NCCNCC(O)COc1ccc(CCOCC2CCC2)cc1.Cl (stereo not given) | -7 | -6 | -8
14 | – | – | CC(C)NCC(O)COc1ccc(CCS(=O)(=O)CC2CCCCC2)cc1.Cl (stereo not given) | -2 | -6 | -2
15 | – | – | COCCc1ccc(OCC(O)CNC(C)C)cc1 (stereo not given) [METOPROLOL] | -12 | 4 | -2
16 | – | – | CC(C)NCC(O)COc1ccc(CCOCC2CC2)cc1 (stereo not given) [BETAXOLOL] | 3 | 3 | 5
17 | – | – | CC(C)NCC(O)COc1ccc(CCOC2CCCC2)cc1.Cl (stereo not given) | -7 | -8 | -16
18 | – | – | CC(C)NCC(O)COc1cccc2ccccc12 (stereo not given) [PROPRANOLOL] | -9 | 0 | 0
19 | – | – | CC(C)NCC(O)COc1ccc(COCC2CC2)cc1 (stereo not given) | -6 | -4 | -3
20 | – | – | CC(C)NCC(O)COc1ccc(CCCOCC2CCC2)cc1.O=C(O)C(=O)O (stereo not given) | -1 | -11 | -11
21 | – | – | COc1ccc(CCNCC(O)COc2ccc(CCOCC3CCC3)cc2)cc1OC.Cl (stereo not given) | -6 | -7 | -5
22 | inactive | – | CC(C)NCC(O)COc1ccc(C[S+]([O-])CC2CCCC2)cc1 (stereo not given) | -1 | -5 | -7
23 | – | 0.186 | CC(=O)Nc1ccc(OCC(O)CNC(C)C)cc1 (stereo not given) [PRACTOLOL] | – | – | –
24 | – | – | CC(C)NCC(O)COc1ccc(CCOCC2CCC2)cc1.Cl (stereo not given) | -4 | -16 | -16
25 | – | – | CC(C)NCC(O)COc1ccc(CCOC2CCCC2)cc1 (stereo not given) | -4 | -17 | -11
26 | – | – | CC(C)NCC(O)COc1ccc(CCS(=O)(=O)CC2CCCO2)cc1.Cl (stereo not given) | -3 | -22 | -16
27 | – | – | CC(CC#N)NCC(O)COc1ccc(CCOCC2CCC2)cc1.Cl (stereo not given) | -2 | -2 | -4
